Source: the NIST ThermoML archive (doi:10.1021/acs.jced.6b00460)

Assay: xn = mol fraction of the nth substance listed
Conditions: 101 kPa, Liquid; for speed of sound: Sing-around technique in a fixed-path interferometer; for mass density: Vibrating tube method

CCCCCC[n+]1ccc(C)cc1.[Br-] [1-hexyl-4-methylpyridinium bromide] + O
Conditions	mass density, 308.15 K [kg/m3]	mass density, 318.15 K [kg/m3]	speed of sound, 308.15 K [m/s]	speed of sound, 318.15 K [m/s]
x2 = 0.0528	1214.12	1207.39	1586.8	1557.9
x2 = 0.1126	1213.44	1206.62	1583.6	1557
x2 = 0.2082	1211.69	1204.8	1579.1	1555.2
x2 = 0.2609	1210.34	1203.43	1575.7	1554.2
x2 = 0.3062	1208.9	1202.01	1573.2	1553.2
x2 = 0.4101	1204.56	1197.72	1568.4	1551.7
x2 = 0.4609	1201.71	1194.91	1565.3	1550.7
x2 = 0.5077	1198.65	1191.88	1563	1549.8
x2 = 0.6089	1189.79	1183.07	1557.2	1547.7
x2 = 0.6539	1184.57	1177.87	1553.3	1546
x2 = 0.7029	1177.58	1170.89	1547.7	1544.7
x2 = 0.7484	1169.44	1162.78	1542.9	1543.5
x2 = 0.8066	1155.56	1148.97	1537.6	1542
x2 = 0.8545	1139.33	1132.88	1533.7	1540.5
x2 = 0.9066	1112.82	1106.74	1529.4	1539.1
x2 = 0.9502	1076.22	1070.75	1524.9	1537.8

CCCCCC[n+]1ccccc1.[Br-] [1-hexylpyridinium bromide] + O
Conditions	mass density, 308.15 K [kg/m3]	mass density, 318.15 K [kg/m3]	speed of sound, 308.15 K [m/s]	speed of sound, 318.15 K [m/s]
x2 = 0.0609	1235	1228.39	1589.8	1556.2
x2 = 0.1184	1234.11	1227.43	1587.3	1555.1
x2 = 0.2091	1232.19	1225.43	1583.4	1553.2
x2 = 0.2544	1230.93	1224.15	1580.7	1552.2
x2 = 0.3097	1229.05	1222.25	1578.7	1551.4
x2 = 0.414	1224.2	1217.39	1574.6	1550
x2 = 0.4533	1221.81	1215.01	1572.9	1549.3
x2 = 0.5028	1218.26	1211.46	1571.8	1548.7
x2 = 0.5928	1209.73	1202.97	1570.1	1547.5
x2 = 0.6486	1202.64	1195.91	1565.9	1547.1
x2 = 0.7138	1191.79	1185.1	1561.6	1546.5
x2 = 0.7554	1182.79	1176.19	1557.1	1545.7
x2 = 0.7995	1170.69	1164.19	1551.1	1545
x2 = 0.8534	1150.45	1144.16	1543.3	1543.3
x2 = 0.9011	1124.03	1118.08	1535.9	1541.3
x2 = 0.9511	1079.2	1073.95	1528.1	1539.1

CCCCCC[n+]1ccccc1.[Cl-] [1-hexylpyridinium chloride] + O
Conditions	mass density, 308.15 K [kg/m3]	mass density, 318.15 K [kg/m3]	speed of sound, 308.15 K [m/s]	speed of sound, 318.15 K [m/s]
x2 = 0.0598	1146.46	1142.37	1569.2	1548.7
x2 = 0.1085	1146.26	1142.04	1567.4	1548.1
x2 = 0.2068	1145.6	1141.23	1564.8	1547.2
x2 = 0.2492	1145.16	1140.76	1563.9	1546.6
x2 = 0.3024	1144.44	1140.03	1562.9	1546
x2 = 0.4166	1142.05	1137.61	1560.3	1544.8
x2 = 0.4568	1140.82	1136.36	1559.6	1544.1
x2 = 0.5065	1138.92	1134.43	1557.6	1543.4
x2 = 0.6137	1132.92	1128.25	1553.2	1542
x2 = 0.6533	1129.75	1124.99	1550.8	1541.4
x2 = 0.709	1124.03	1119.08	1547.4	1540.6
x2 = 0.7521	1118.2	1113.12	1542.8	1540
x2 = 0.7936	1110.94	1105.73	1539.5	1539.4
x2 = 0.8561	1095.34	1090.02	1534	1538.6
x2 = 0.8966	1080.31	1074.99	1529.9	1538.2
x2 = 0.9528	1046.95	1042	1524.5	1537.2
